# Measured values: patent US10174013B2, “Benzimidazole derivatives as kinase inhibitors” (SELVITA S.A., priority 2012, dated 2019)
# Structures can show the parent of a compound that is named as a salt. Where two headings read alike, the source gives them in different places.
# Columns and labels:
# Pim-1 = Pim-1 (Homo sapiens (Human), UniProt P11309); assay: ADP-Glo Kinase Assay, Pim-1; type: biochemical; conditions: 1 μM compound; for inhibition at 1 µM: read-out: Pim-1 % INH (1 μM)
# Summary of the method: (§1)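 Compounds were diluted in assay buffer to 1000 nM and incubated with kinase, substrate and ATP at apparent Km. Remaining ATP was depleted, ADP converted to ATP and detected by luciferase; percent inhibition came from normalized luminescence.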
# Pim-2 = Pim-2 (Homo sapiens (Human), UniProt Q9P1W9); assay: ADP-Glo Kinase Assay, Pim-2; type: biochemical; conditions: 1 μM compound
# Pim-2, sequence (Q9P1W9 whole entry): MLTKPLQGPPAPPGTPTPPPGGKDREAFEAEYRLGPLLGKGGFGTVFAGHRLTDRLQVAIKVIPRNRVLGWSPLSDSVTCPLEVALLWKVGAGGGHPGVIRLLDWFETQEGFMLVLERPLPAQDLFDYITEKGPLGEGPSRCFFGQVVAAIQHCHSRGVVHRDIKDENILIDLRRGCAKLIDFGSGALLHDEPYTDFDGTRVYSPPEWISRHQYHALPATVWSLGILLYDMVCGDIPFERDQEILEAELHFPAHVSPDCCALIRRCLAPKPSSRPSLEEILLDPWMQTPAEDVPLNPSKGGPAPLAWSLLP
# Summary of the method: as §1
# Pim-3 = Pim-3 (Homo sapiens (Human), UniProt Q86V86); assay: ADP-Glo Kinase Assay, Pim-3; type: biochemical; conditions: 1 μM compound
# Summary of the method: as §1
# FLT3wt = FLT3wt (Homo sapiens (Human), UniProt P36888); assay: ADP-Glo Kinase Assay, Flt3 wt; type: biochemical; conditions: 1 μM compound; for inhibition at 1 µM: read-out: Flt3wt % INH (1 μM)
# FLT3wt, sequence (P36888 27-993): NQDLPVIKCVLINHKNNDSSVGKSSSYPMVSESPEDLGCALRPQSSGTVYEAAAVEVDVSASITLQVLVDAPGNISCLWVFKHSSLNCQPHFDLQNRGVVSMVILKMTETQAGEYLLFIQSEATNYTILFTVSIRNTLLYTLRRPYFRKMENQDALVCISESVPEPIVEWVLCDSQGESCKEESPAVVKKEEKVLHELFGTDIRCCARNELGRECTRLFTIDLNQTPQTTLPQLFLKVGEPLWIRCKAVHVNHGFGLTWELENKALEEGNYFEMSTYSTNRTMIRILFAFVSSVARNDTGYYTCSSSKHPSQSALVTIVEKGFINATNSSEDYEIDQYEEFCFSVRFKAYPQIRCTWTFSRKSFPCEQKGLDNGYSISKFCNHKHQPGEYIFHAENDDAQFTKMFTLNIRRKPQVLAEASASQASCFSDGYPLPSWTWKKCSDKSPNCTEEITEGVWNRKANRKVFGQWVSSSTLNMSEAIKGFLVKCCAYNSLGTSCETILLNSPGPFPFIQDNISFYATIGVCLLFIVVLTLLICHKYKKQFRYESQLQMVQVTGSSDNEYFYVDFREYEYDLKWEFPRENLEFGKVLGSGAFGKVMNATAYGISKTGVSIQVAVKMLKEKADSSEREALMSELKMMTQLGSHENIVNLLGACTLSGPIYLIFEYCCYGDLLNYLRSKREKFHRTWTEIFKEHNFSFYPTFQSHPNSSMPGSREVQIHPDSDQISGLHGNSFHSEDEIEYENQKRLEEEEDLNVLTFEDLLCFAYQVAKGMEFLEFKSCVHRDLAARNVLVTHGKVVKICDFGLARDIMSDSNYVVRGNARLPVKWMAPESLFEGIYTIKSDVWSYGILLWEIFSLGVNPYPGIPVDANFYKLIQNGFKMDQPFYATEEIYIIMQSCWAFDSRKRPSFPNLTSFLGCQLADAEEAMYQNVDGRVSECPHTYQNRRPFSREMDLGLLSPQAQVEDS
# Summary of the method: as §1
# CDK2/E = CDK2/E (Homo sapiens (Human), UniProt P24941); assay: ADP-Glo Kinase Assay, CDK2/E; type: biochemical; conditions: 1 μM compound; for inhibition at 1 µM: read-out: CDK2/E % INH (1 μM)
# Summary of the method: as §1
# DYRK1 = DYRK1 (Homo sapiens (Human), UniProt Q13627); assay: ADP-Glo Kinase Assay, DYRK1; type: biochemical; conditions: 1 μM compound; for inhibition at 1 µM: read-out: DYRK1A % INH (1 μM)
# Summary of the method: as §1
# MV4-11 cells = assay: Growth inhibition, MTS assay, MV4-11; type: cell-based, Human; conditions: MTS cell viability, read-out: MV4-11 ED50
# HEL92 cells = assay: Growth inhibition, MTS assay, HEL92; type: cell-based, Human; conditions: MTS cell viability, read-out: HEL92 ED50
# HepG2 cells = assay: Growth inhibition, MTS assay, HepG2; type: cell-based, Human; conditions: MTS cell viability, read-out: HepG2 ED50
# Jeko-1 cells = assay: Growth inhibition, MTS assay, Jeko-1; type: cell-based, Human; conditions: 72 hours, MTS cell viability, read-out: Jeko-1 ED50
# Source text: (§2) The following cell lines, were obtained and used in tests as outlined below: • Human myelomonocytic, biphenotypic leukemia MV4-11 cells (harboring a Flt3-ITD mutation); • Human Acute Myeloid Leukemia MOLM16 cells; • Human Acute Myeloid Leukemia MOLM13 cells (harboring a Flt3-ITD mutation); • Human Myeloid Leukemia KG-1 cells; • Human erythroleukemia HEL92 cells; • Human mantle cell lymphoma Jeko-1 cells; • Human hepatocellular carcinoma HepG2 cells; and • Human colon adenocarcinoma SW-480 cells.
# (§3) The assays were carried out according to the following protocol, which is described as an example for the MV4-11 cells:
# (§4) Ten thousand MV4-11 cells were inoculated into each well of a 96-well microplate (manufactured by Corning Corp.) using Iscove's MDM medium (culture medium) containing 10% fetal calf serum (FCS). The same day, a dimethyl sulfoxide (DMSO) solution of each test compound prepared in a concentration of 10 mmol/L was further diluted with DMSO to the desired concentrations (0.1, 0.5, 1, 2.5, 5 and 10 micromol/L), and the diluted solution was added to each well. The individual wells were further cultured in 5% carbon dioxide at 37° C. for 72 hours. […] Briefly, 10 μl MTS (3-(4,5-Dimethyl-2-thiazolyl)-5-(carboxymethoxyphenyl)-2-(4-sulfophenyl)-2H-tetrazolium was added to each well, and culturing was performed in 5% carbon dioxide at 37° C. for 2 hours. After this incubation and using a microplate spectrophotometer (Synergy 2 multi-mode microplate reader (BioTek)), the absorbance of each well was measured at 490 nm. The value for cells not incubated with a test compound was designated as 100%. By comparing these values with the absorbance difference obtained at the well in which each test compound was added, the cell viability (% viability) after treatment with the test compound was calculated.
# SW-480 cells = assay: Growth inhibition, MTS assay, SW-480; type: cell-based, Human; conditions: 72 hours, MTS cell viability, read-out: SW-480 ED50
# MV4-11 xenograft = MV4-11 xenograft in immunocompromised mice; type: in vivo; conditions: MV4-11 xenograft, oral
# Source text: Several compounds of the present invention have been studied in a xenograft in mice, an in vivo tumor transplantation model used to investigate the factors involved in malignant transformation, invasion and metastasis, as well as to examine response to therapy. For the purpose of acceptance of donor leukemic cells (MV4-11 or MOLM16 cells), immunocompromised mice were used, namely particularly severely compromised immunodeficient mice (NOD/scid, SCID/beige). When tumors developed size of approx. 50-200 mm^3, the compounds as indicated below in Tables 3 and 3a were administered orally every day for 2-3 weeks, in once a day (QD) or twice a day (BID) schedule. During the course of the experiment, the mice were monitored and the following two parameters were measured: the tumor growth inhibition (TGI) factor as a measure of therapeutic efficacy and the body weight change (ΔBW) factor as a measure of possible compound toxicity. The results are depicted in Tables 3 and 3a.
# Next, compound 26A was evaluated in a xenograft study of acute myeloid leukemia (MV-4-11), alone or in a combinational treatment with Cytarabine in vivo (Table 3b; FIG. 6). Compound 26A was tested in two doses (50 and 25 mg/kg) and administered twice a day (BID); Cytarabine was administered at dose of 50 mg/kg three times in a week (TIW). During 15 days of compound administration dose-dependent anti-cancer activity of compound 26A (administered alone) was shown. Tumor growth inhibition reached −82% and −77%, respectively.
# hERG potassium channel = hERG potassium channel (Homo sapiens (Human), UniProt Q12809); assay: hERG automated patch clamp assay (QPatch HT)
# hERG potassium channel, sequence (Q12809 whole entry): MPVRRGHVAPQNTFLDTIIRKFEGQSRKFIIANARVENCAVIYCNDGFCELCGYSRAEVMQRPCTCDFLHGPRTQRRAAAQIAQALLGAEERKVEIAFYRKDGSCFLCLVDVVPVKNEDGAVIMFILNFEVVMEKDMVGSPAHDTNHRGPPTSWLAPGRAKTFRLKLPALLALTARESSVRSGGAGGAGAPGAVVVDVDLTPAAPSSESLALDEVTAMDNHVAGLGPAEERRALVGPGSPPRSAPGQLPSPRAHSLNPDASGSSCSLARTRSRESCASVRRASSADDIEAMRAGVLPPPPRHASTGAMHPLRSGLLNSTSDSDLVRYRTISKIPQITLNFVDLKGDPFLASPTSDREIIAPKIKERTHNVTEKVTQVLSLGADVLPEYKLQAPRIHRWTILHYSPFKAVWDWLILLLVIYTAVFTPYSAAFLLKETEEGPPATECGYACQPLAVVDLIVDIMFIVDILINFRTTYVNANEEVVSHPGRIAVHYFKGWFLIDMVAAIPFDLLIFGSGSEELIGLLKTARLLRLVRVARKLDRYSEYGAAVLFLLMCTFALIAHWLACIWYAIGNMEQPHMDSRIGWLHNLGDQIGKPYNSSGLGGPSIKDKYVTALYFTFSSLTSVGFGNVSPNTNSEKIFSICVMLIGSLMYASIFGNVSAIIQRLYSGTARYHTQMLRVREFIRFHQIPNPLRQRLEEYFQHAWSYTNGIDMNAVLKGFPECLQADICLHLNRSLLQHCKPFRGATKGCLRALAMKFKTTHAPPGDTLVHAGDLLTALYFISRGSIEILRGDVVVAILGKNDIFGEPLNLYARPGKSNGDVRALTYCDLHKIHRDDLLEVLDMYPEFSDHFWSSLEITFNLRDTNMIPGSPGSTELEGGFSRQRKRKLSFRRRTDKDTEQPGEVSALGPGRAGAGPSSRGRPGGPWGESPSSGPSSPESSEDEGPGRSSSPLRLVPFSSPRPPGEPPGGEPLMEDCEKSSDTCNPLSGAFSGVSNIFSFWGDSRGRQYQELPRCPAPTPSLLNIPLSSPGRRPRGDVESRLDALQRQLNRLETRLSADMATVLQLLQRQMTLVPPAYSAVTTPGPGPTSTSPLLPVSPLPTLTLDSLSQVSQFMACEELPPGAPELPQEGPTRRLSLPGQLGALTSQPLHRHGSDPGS
# Procedure: The hERG (human ether-A-go-go-related gene) channel corresponds to an important anti-target for potential new drugs since its inhibition may lead to sudden death. In order to establish whether the compounds of the present invention act on hERG, the following experiment was carried out.
# The in vitro effects of the compounds indicated in Table 5 on the hERG potassium channel current (a surrogate for Iκr, the rapidly activating, delayed rectifier cardiac potassium current) expressed in mammalian cells were evaluated at room temperature using the QPatch HT® (Sophion Bioscience A/S, Denmark), an automatic parallel patch clamp system. Each compound indicated in Table 5 was evaluated at 0.1, 1, 3, 10 and 30 μM with each concentration tested in a minimum of two cells (n≥2). The duration of exposure to each compound concentration was 3 minutes.
# MOLM16 cells = assay: Growth inhibition, MTS assay, MOLM16; type: cell-based, Human; conditions: MTS cell viability, read-out: MOLM 16 ED50
# Source text: as §2, §3, §4
# Pim-1, sequence (P11309 whole entry): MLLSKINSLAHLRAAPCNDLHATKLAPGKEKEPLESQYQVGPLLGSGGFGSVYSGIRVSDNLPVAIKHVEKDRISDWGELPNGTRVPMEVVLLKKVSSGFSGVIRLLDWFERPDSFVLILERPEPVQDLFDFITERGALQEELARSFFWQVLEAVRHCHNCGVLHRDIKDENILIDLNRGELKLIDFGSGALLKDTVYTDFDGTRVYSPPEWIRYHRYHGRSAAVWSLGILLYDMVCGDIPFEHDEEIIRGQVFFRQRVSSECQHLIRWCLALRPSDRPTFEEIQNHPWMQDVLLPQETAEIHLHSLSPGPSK
Structure (SMILES),inhibition at 1 µM (Pim-1) [%],inhibition at 1 µM (FLT3wt) [%],inhibition at 1 µM (CDK2/E) [%],inhibition at 1 µM (DYRK1) [%],"IC50 (MV4-11 cells; Homo sapiens, MV4-11, 72 h) [nM]","IC50 (HepG2 cells; Homo sapiens, HepG2, 72 h) [nM]","IC50 (MOLM16 cells; Homo sapiens, MOLM16, 72 h) [nM]",further results
CC(C)n1c(N2CCC[C@H](N)C2)nc2c([N+](=O)[O-])c(Br)c(Br)cc21 [Example 1AP],,,,,,,,Pim-1 % INH (1 μM) (Pim-1): >95%; Pim-2 % INH (1 μM) (Pim-2): 80%; Pim-3 % INH (1 μM) (Pim-3): 93%; Flt3wt % INH (1 μM) (FLT3wt): 56%; CDK2/E % INH (1 μM) (CDK2/E): 13%; DYRK1A % INH (1 μM) (DYRK1): 70%; IC50 (MV4-11 cells; 72 hours): 300 nM; IC50 (HEL92 cells; 72 hours): 2400 nM; IC50 (HepG2 cells; 72 hours): 900 nM; IC50 (Jeko-1 cells): 1300 nM; IC50 (SW-480 cells): 2400 nM; TGI (tumor growth inhibition) (MV4-11 xenograft; 150 mg/Kg QD): 99%; ΔBW (body weight change) (MV4-11 xenograft; 150 mg/Kg QD): 11.7%; TGI (tumor growth inhibition) (MV4-11 xenograft; doses as in Table 3): exceeding 97%; IC50 (hERG potassium channel): 1820 nM
N[C@@H]1CCN(c2nc3c([N+](=O)[O-])c(Br)c(Br)cc3n2C2CCC2)C1 [Example 1DC],,,,,,,,Pim-1 % INH (1 μM) (Pim-1): >95%; Flt3wt % INH (1 μM) (FLT3wt): 52%; DYRK1A % INH (1 μM) (DYRK1): >95%; IC50 (MV4-11 cells; 72 hours): 200 nM; IC50 (HEL92 cells; 72 hours): 2000 nM; IC50 (HepG2 cells; 72 hours): 1000 nM; IC50 (MOLM16 cells; 72 hours): 160 nM
CC(C)n1c(N2CCC(N)CC2)nc2c(C#N)c(Br)c(Br)cc21 [Example 1DT],> 95,< 5,46,34,1500,1000,300,
CCn1c(NC2CCC(N)CC2)nc2c(C#N)c(Br)c(Br)cc21 (stereo not shown) [Example 1DV],> 95,< 5,50,95,2100,2900,1500,
CN[C@@H]1CCN(c2nc3c(C#N)c(Br)c(Br)cc3n2C(C)C)C1 [Example 1DW],> 95,8,48,,5100,,300,
"NC(=O)Cn1c(N2CCNCC2)nc2c([N+](=O)[O-])c(Br)c(Br)cc21 [Example 2L, 2-[5,6-dibromo-4-nitro-2-(piperazin-1-yl)-1H-1,3-benzodiazol-1-yl]acetamide]",67,,,,6100,,3100,
"NCCCn1c(N2CC[C@@H](N)C2)nc2c([N+](=O)[O-])c(Br)c(Br)cc21 [Example 3A, (3R)-1-[1-(3-aminopropyl)-5,6-dibromo-4-nitro-1H-1,3-benzodiazol-2-yl]pyrrolidin-3-amine]",> 95,< 5,20,,2300,6300,1900,
"NCCn1c(N2CC[C@H](N)C2)nc2c([N+](=O)[O-])c(Br)c(Br)cc21 [Example 3B, (3S)-1-[1-(2-aminoethyl)-5,6-dibromo-4-nitro-1H-1,3-benzodiazol-2-yl]pyrrolidin-3-amine]",> 95,,,18,1300,,1500,
"CCn1c(N2CCNCC2)nc2c(C#N)c(Br)c(Br)cc21 [Example 8A, 5,6-dibromo-1-ethyl-2-(piperazin-1-yl)-1H-1,3-benzodiazole-4-carbonitrilehydrochloride]",82,11,< 5,46,1300,1700,,"inhibition at 1 µM (Pim-2; read-out: Pim-2 % INH (1 μM)): 14%; inhibition at 1 µM (Pim-3; read-out: Pim-3 % INH (1 μM)): 92%; IC50 (HEL92 cells; Homo sapiens, 72 h): 4800 nM; IC50 (Jeko-1 cells; Homo sapiens, JeKo-1): 1400 nM; IC50 (SW-480 cells; Homo sapiens, SW480): 4700 nM; IC50 (hERG potassium channel): 770 nM"
"CC(C)n1c(N2CCNCC2)nc2c([N+](=O)[O-])c(C(F)(F)F)c(Br)cc21 [Example 9B, 6-bromo-4-nitro-2-(piperazin-1-yl)-1-(propan-2-yl)-5-(trifluoromethyl)-1H-1,3-benzodiazole]",59,,,33,5900,2700,7290,
"CC(C)n1c(N2C[C@H]3C[C@@H]2CN3)nc2c([N+](=O)[O-])c(Br)c(Br)cc21 [Example 22AE, 5,6-dibromo-2-[(1R,4R)-2,5-diazabicyclo[2.2.1]heptan-2-yl]-4-nitro-1-(propan-2-yl)-1H-1,3-benzodiazole]",76,,,95,2700,> 10000,2800,
